From patent publication EP4603105A1, “PHARMACEUTICAL COMPOSITION CONTAINING CYCLIC COMPOUND HAVING SELECTIVE KRAS INHIBITORY EFFECT AGAINST HRAS AND NRAS” (CHUGAI SEIYAKU KABUSHIKI KAISHA, priority 2022, dated 2024)
*1 amine or outer side, *2 acyl side, *3 side chain or, on linkers, in order; H or OH if unused. Where a SMILES comes first, the peptide text is derived from it. Bridges are numbered along the chain shown (N, C = ends). [ ]: non-standard residue; d: D form. The star is where a group is joined. hPhe(3,5-F2-4-CF3) = N[C@@H](CCc1cc(F)c(C(F)(F)F)c(F)c1)C(=O)O; NPrPhe(4-CF3) = CCCN[C@@H](Cc1ccc(C(F)(F)F)cc1)C(=O)O; NMeGly(cPent) = CN[C@H](C(=O)O)C1CCCC1; X7 = C[C@@](N[*:1])(C(=O)[*:2])C1CC1; NMeD = CN[C@@H](CC(=O)O)C(=O)O; NMeL = CN[C@@H](CC(C)C)C(=O)O; Morpholide = C1CN(*)CCO1; Aze = O=C(O)[C@@H]1CCN1; Sar = CNCC(=O)O

Tests used:
[1] = target: GDP-bound KRAS wild-type protein (Homo sapiens, UniProt P01116); assay: Binding to KRAS by surface plasmon resonance (SPR), dissociation constant KD
Sequence of GDP-bound KRAS wild-type protein (P01116 1-188 isoform P01116-2): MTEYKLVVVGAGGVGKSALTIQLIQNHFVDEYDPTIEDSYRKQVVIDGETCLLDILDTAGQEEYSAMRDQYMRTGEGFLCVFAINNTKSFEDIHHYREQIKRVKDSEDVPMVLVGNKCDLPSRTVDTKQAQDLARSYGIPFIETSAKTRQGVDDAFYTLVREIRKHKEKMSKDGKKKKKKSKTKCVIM
Description: Surface plasmon resonance was used to analyze the binding affinity of compounds for KRAS, NRAS, and HRAS. The apparatus used was Biacore 8K, 8K+, or T200 (GE Healthcare), and the running buffer used was HBS (10 mM HEPES-NaOH, 150 mM NaCl, pH 7.4) containing 1 mM DTT, 10 mM MgCl2, 0.01% Tween 20, 10 µM GDP, and 4% DMSO.
Biotinylated Avi-tag fusion KRAS, NRAS, and HRAS proteins were expressed in E. coli BL21 (DE3) strains, and after cells were homogenized, they were purified using Streptavidin Mutein Matrix and Superdex 75. After purification, GDP-loaded KRAS, NRAS, and HRAS proteins were immobilized on the surface of Sensor Chip CAP (Cytiva) coated with Biotin CAPture Reagent in an immobilization amount of about 100 to 300 RU. Binding of each compound was evaluated by the Single Cycle Kinetics method, and a running buffer or a compound solution was added to the RAS protein non-immobilized surface and the immobilized surface to obtain a binding response. The flow rate was set to 100 µL/min, and in the compound-adding cycle, compound solutions having different concentrations were intermittently added for 75 seconds each, starting from a low concentration. […] In the blank cycle, a running buffer was intermittently added and not the compound solution. The Biotin CAPture Reagent and RAS proteins were immobilized for each cycle, and at the end of each cycle, the sensor chip was regenerated by the regeneration solution appended to the Biotin CAPture Kit (Cytiva). Measurement was carried out at 30°C.
The resulting sensorgram was subjected to curve fitting based on a 1:1 binding model on Biacore Insight Evaluation Software or T200 Evaluation Software, and thereby the dissociation constant KD of each compound with respect to KRAS, NRAS, and HRAS was determined. […] Blank indicates a compound from which the KD value with respect to NRAS or HRAS was not obtained.

[2] = target: GDP-bound NRAS wild-type protein (Homo sapiens, UniProt P01111); assay: Binding to NRAS by surface plasmon resonance (SPR), KD and KD ratio to KRAS
Sequence of GDP-bound NRAS wild-type protein (P01111 whole entry): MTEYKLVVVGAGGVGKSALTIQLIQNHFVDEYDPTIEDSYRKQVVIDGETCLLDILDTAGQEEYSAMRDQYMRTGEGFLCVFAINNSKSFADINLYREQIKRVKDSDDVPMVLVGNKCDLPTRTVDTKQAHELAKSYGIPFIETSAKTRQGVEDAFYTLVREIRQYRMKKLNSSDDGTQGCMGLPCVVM
Procedure, shortened: (§1)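 Captured GDP-RAS (~100–300 RU) was exposed to increasing compound concentrations, 75 s per step, in running buffer with 10 µM GDP, 10 mM MgCl2 and 4% DMSO at pH 7.4.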

HRAS wild-type protein = HRAS wild-type protein (Homo sapiens, UniProt P01112); assay: Binding to HRAS by surface plasmon resonance (SPR), KD and KD ratio to KRAS
Sequence of HRAS wild-type protein (P01112 whole entry): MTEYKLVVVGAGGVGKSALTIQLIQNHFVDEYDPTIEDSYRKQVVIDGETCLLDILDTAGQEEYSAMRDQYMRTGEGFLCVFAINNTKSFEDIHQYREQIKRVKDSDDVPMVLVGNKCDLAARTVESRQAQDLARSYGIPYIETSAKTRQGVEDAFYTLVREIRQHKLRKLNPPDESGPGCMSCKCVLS
Procedure, shortened: as §1

[3] = tested on: human lung cancer strain NCI-H441; type: cell-based
Procedure, shortened: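 Step one: dispense the test compound in serial DMSO dilutions. Step three: add the reagent and measure […].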

[4] = Single Cycle Kinetics, 1:1 binding model
[5] = ratio of KD for GDP-bound NRAS wild-type protein to KD for KRAS
[6] = ratio of KD for HRAS wild-type protein to KD for KRAS
[7] = ratio of the KD value with respect to GDP-bound NRAS wild-type protein to the KD value with respect to KRAS
[8] = ratio of the KD value with respect to HRAS wild-type protein to the KD value with respect to KRAS

Row | Kd [1, 4] [nM] | IC50 [3] [nM] | Kd ([1]; Single Cycle Kinetics) [nM] | Kd ([1]; 1:1 binding model) [nM] | SMILES | NRAS /KRAS ([2]; ratio of KD value for GDP-bound NRAS wild-type protein to KD value for KRAS (SPR)) | HRAS /KRAS (HRAS wild-type protein; ratio of KD value for HRAS wild-type protein to KD value for KRAS (SPR)) | NRAS /KRAS [2, 5] | HRAS /KRAS (HRAS wild-type protein; [6]) | NRAS /KRAS [2, 7] | HRAS /KRAS (HRAS wild-type protein; [8])
1 | 2.8 | 95.2 | – | – | CCO[C@@H]1C[C@H]2C(=O)NC3(CCC3)C(=O)N(C)[C@@H](C(CC)CC)C(=O)N(C)[C@H](C3CCC3)CC(=O)N(C)[C@@H](CC3CC3)C(=O)N[C@@H]([C@@H](C)CC)C(=O)N(C)CC(=O)N(C)[C@H]3C/C=C\CCN(C3=O)[C@@H](Cc3ccc(C(F)(F)F)cc3)C(=O)N(C)CC(=O)N[C@@H](CCc3cc(F)c(C(F)(F)F)c(F)c3)C(=O)N2C1 [PP1636] | A (a compound having 10 or more and less than 20 is denoted as A) | A (a compound having 10 or more and less than 20 is denoted as A) | – | – | – | –
2 | – | 63.9 | 1.2 | – | CCO[C@@H]1C[C@H]2C(=O)NC3(CCC3)C(=O)N(C)[C@@H](C3CCCC3)C(=O)N(C)[C@H](C(=O)N(C)C)CC(=O)N(C)[C@@H](Cc3ccccc3C)C(=O)N[C@@H]([C@@H](C)CC)C(=O)N(C)CC(=O)N(C)[C@H]3CCCCCN(C3=O)[C@@H](Cc3ccc(C(F)(F)F)cc3)C(=O)N(C)CC(=O)N[C@@H](CCc3cc(F)c(C(F)(F)F)c(F)c3)C(=O)N2C1 [PP0941] | – | – | B (a compound having 3 or more and less than 10 is denoted as B) | B (a compound having 3 or more and less than 10 is denoted as B) | – | –
3 | 1.6 | 50.9 | – | – | CCC[C@H]1C(=O)N[C@@H]([C@H](C)CC)C(=O)N(C)CC(=O)N(C)[C@H]2C/C=C\CCN(C2=O)[C@@H](Cc2ccc(C)cc2)C(=O)N(C)CC(=O)N[C@@H](CCc2ccc(C(F)(F)F)c(Cl)c2)C(=O)N2C[C@H](OCC)C[C@H]2C(=O)NC2(CC(C)(C)C2)C(=O)N(C)[C@@H](CC(C)(C)C)C(=O)N(C)[C@H](C(=O)N(C)C)CC(=O)N1C [PP2219] | – | – | – | – | A (a compound having 10 or more and less than 20 is denoted as A) | A (a compound having 10 or more and less than 20 is denoted as A)
4 | 0.49 | 20 | – | – | CCO[C@@H]1C[C@H]2C(=O)NC3(CC(C)(C)C3)C(=O)N(C)[C@@H](C(CC)CC)C(=O)N(C)[C@H](C(=O)N(C)C)CC(=O)N(C)[C@@H](C(C)C)C(=O)N[C@@H]([C@@H](C)CC)C(=O)N(C)CC(=O)N(C)[C@H]3C/C=C\CCN(C3=O)[C@@H](Cc3ccc(C)cc3)C(=O)N(C)CC(=O)N[C@@H](CCc3cc(F)c(C(F)(F)F)c(F)c3)C(=O)N2C1 [PP2153] | – | – | – | – | A (a compound having 10 or more and less than 20 is denoted as A) | A (a compound having 10 or more and less than 20 is denoted as A)
5 | – | 75 | 0.21 | – | CCO[C@@H]1C[C@H]2C(=O)NC3(CCC3)C(=O)N(C)[C@@H](C3CCCC3)C(=O)N(C)[C@H](C(=O)N(C)C)CC(=O)N(C)[C@@H](CC)C(=O)N[C@@H]([C@@H](C)CC)C(=O)N3CCC[C@H]3C(=O)N(C)[C@H]3C/C=C\CCN(C3=O)[C@@H](Cc3ccc(C(F)(F)F)cc3)C(=O)N(C)CC(=O)N[C@@H](CCc3cc(F)c(C(F)(F)F)c(F)c3)C(=O)N2C1 [PP1056] | – | – | A (a compound having 10 or more and less than 20 is denoted as A) | A (a compound having 10 or more and less than 20 is denoted as A) | – | –
6 | – | 434 | 4.3 | – | CCCN1C(=O)CN(C)C(=O)[C@@H]2CCN2C(=O)[C@H]([C@@H](C)CC)NC(=O)[C@H](CC(C)C)N(C)C(=O)C[C@@H](C(=O)N2CCOCC2)N(C)C(=O)[C@H](C2CCCC2)N(C)C(=O)[C@](C)(C2CC2)NC(=O)[C@@H]2CCCN2C(=O)[C@H](CCc2cc(F)c(C(F)(F)F)c(F)c2)NC(=O)CN(C)C(=O)[C@@H]1Cc1ccc(C(F)(F)F)cc1 [PP0772] ([NMeL]I[Aze][Sar][NPrPhe(4-CF3)][Sar][hPhe(3,5-F2-4-CF3)]P[X7][NMeGly(cPent)][NMeD]-Morpholide; lactam N-11) | – | – | B (a compound having 3 or more and less than 10 is denoted as B) | B (a compound having 3 or more and less than 10 is denoted as B) | – | –
7 | 0.11 | 17.5 | – | – | CCCOC[C@H]1C(=O)N[C@@H]([C@@H](C)CC)C(=O)N(C)CC(=O)N(C)[C@H]2C/C=C\CCN(C2=O)[C@@H](Cc2ccc(C(F)(F)F)cc2)C(=O)N(C)CC(=O)N[C@@H](CCc2ccc(C(F)(F)F)c(OC)c2)C(=O)N2C[C@@H](C)C[C@H]2C(=O)NC2(CCC2)C(=O)N(C)[C@@H](C2CCCC2)C(=O)N(C)[C@H](C(=O)N(C)CCC)CC(=O)N1C [PP2028] | – | – | – | – | A (a compound having 10 or more and less than 20 is denoted as A) | B (a compound having 3 or more and less than 10 is denoted as B)
8 | 32 | 33.9 | – | – | CCC[C@H]1C(=O)N[C@@H]([C@@H](C)CC)C(=O)N(C2CC2)CC(=O)N(C)[C@H]2C/C=C\CCN(C2=O)[C@@H](CC2CCCCC2)C(=O)N(C)CC(=O)N[C@@H](CCc2ccc(C(F)(F)F)c(OC)c2)C(=O)N2C[C@H](OCC)C[C@H]2C(=O)N(C)C2(CCC2)C(=O)N(C)[C@@H](C(CC)CC)C(=O)N(C)[C@H](C(=O)N(C)C)CC(=O)N1C [PP2337] | – | – | – | – | A (a compound having 10 or more and less than 20 is denoted as A) | A (a compound having 10 or more and less than 20 is denoted as A)
9 | 0.47 | 83.3 | – | – | CC[C@H](C)[C@@H]1NC(=O)[C@H](CC(C)C)N(C)C(=O)C[C@@H](C(=O)N2CCOCC2)NC(=O)[C@H](C2CCCC2)N(C)C(=O)C2(CCCC2)NC(=O)[C@@H]2CCCN2C(=O)[C@H](CCc2cc(F)c(C(F)(F)F)c(F)c2)NC(=O)CN(C)C(=O)[C@H](Cc2ccc(C(F)(F)F)cc2)N2CCCC[C@@H](C2=O)N(C)C(=O)CN(C)C1=O [PP0541] | – | – | – | – | B (a compound having 3 or more and less than 10 is denoted as B) | B (a compound having 3 or more and less than 10 is denoted as B)
10 | – | 23.5 | – | 1.8 | CC[C@H](C)[C@@H]1NC(=O)[C@H](CC(C)C)N(C)C(=O)C[C@@H](C(=O)N2CCOCC2)N(C)C(=O)[C@H](C2CCCC2)N(C)C(=O)C2(CCCC2)NC(=O)[C@@H]2CCCN2C(=O)[C@H](CCc2ccc(C(F)(F)F)c(Cl)c2)NC(=O)CN(C)C(=O)[C@H](Cc2ccc(C(F)(F)F)cc2)N2CCCCC[C@@H](C2=O)N(C)C(=O)CN(C)C1=O [PP0319] | – | – | B (a compound having 3 or more and less than 10 is denoted as B) | B (a compound having 3 or more and less than 10 is denoted as B) | – | –
11 | – | 47 | – | 0.63 | CC[C@H](C)[C@@H]1NC(=O)[C@H](COC)N(C)C(=O)C[C@@H](C(=O)N(C)CC)N(C)C(=O)[C@H](C2CCCC2)N(C)C(=O)C2(CC(C)(C)C2)NC(=O)[C@@H]2CC(F)(F)CN2C(=O)[C@H](CCc2ccc(C(F)(F)F)c(OC)c2)NC(=O)CN(C)C(=O)[C@H](Cc2ccc(C(F)(F)F)cc2)N2CC/C=C\C[C@@H](C2=O)N(C)C(=O)[C@@H]2CCN2C1=O [PP3136] | – | – | B (a compound having 3 or more and less than 10 is denoted as B) | B (a compound having 3 or more and less than 10 is denoted as B) | – | –
12 | – | 250 | 2 | – | CCO[C@@H]1C[C@H]2C(=O)NC3(CCC3)C(=O)N(C)[C@@H]([C@H](C)CC)C(=O)N(C)[C@H](C(=O)N3CCOCC3)CC(=O)N(C)[C@@H](CC(C)C)C(=O)N[C@@H]([C@@H](C)CC)C(=O)N(C)CC(=O)N(C)[C@H]3CCCCCN(C3=O)[C@@H](Cc3ccc(C(F)(F)F)cc3)C(=O)N(C)CC(=O)N[C@@H](CCc3cc(F)c(C(F)(F)F)c(F)c3)C(=O)N2C1 [PP0821] | – | – | A (a compound having 10 or more and less than 20 is denoted as A) | B (a compound having 3 or more and less than 10 is denoted as B) | – | –
13 | 4.9 | 94.7 | – | – | CCC[C@H]1C(=O)N[C@@H](C(CC)CC)C(=O)N(C)CC(=O)N(C)[C@H]2C/C=C\CCN(C2=O)[C@@H](Cc2ccc(C)cc2)C(=O)N(C)CC(=O)N[C@@H](CCc2ccc(C(F)(F)F)c(Cl)c2)C(=O)N2C[C@H](OCC)C[C@H]2C(=O)NC2(CC(C)(C)C2)C(=O)N(C)[C@@H](CC(C)C)C(=O)N(C)[C@H](C(=O)N(C)C)CC(=O)N1C [PP2202] | – | – | – | – | A (a compound having 10 or more and less than 20 is denoted as A) | A (a compound having 10 or more and less than 20 is denoted as A)
